Assay results: ChEMBL document CHEMBL1201862, “PubChem BioAssay data set” (2004)
Active and inactive are the calls of the source.

What was measured:
[1] = target: ALK tyrosine kinase receptor (Homo sapiens, UniProt Q9UM73); type: functional;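 further: ALK tested as one member of a kinase panel screen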
Aurora kinase A = target: T1, Aurora kinase A (Homo sapiens, UniProt O14965); type: functional;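 further: value from the Navigating the Kinome kinase panel profiling, panel entry STK6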
T1 sequence (O14965 whole entry): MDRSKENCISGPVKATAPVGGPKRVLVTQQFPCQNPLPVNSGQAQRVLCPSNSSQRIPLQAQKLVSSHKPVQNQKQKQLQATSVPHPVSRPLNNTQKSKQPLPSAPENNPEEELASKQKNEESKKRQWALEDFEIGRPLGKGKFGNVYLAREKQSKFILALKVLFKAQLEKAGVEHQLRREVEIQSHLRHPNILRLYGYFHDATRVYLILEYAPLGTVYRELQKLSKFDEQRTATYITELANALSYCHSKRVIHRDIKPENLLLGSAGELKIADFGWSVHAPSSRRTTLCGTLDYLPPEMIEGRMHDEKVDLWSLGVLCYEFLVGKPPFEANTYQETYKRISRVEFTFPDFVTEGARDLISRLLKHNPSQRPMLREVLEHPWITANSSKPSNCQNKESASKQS

[2] = target: Vascular endothelial growth factor receptor 2 (Homo sapiens, UniProt P35968); type: functional
Aurora kinase B = Aurora kinase B (Homo sapiens, UniProt Q96GD4); type: functional
Sequence of Aurora kinase B (Q96GD4 whole entry): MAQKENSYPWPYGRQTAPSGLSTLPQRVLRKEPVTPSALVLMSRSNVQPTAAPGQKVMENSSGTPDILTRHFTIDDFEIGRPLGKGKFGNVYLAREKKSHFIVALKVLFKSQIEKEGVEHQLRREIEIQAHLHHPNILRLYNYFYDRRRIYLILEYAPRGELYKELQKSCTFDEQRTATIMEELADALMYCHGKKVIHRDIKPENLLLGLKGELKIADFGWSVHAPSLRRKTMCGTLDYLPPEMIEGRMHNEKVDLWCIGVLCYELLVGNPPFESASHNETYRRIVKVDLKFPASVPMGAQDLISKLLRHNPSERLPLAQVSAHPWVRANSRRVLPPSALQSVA

Melanocortin receptor 4 = Melanocortin receptor 4 (Homo sapiens, UniProt P32245); assay: MC4R antagonist potency on cAMP, dose response, cell-based, TR-FRET, biased antagonists (AID 602298); type: functional;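 further: antagonist potency against agonist-stimulated cAMP production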
Sequence of Melanocortin receptor 4 (P32245 whole entry): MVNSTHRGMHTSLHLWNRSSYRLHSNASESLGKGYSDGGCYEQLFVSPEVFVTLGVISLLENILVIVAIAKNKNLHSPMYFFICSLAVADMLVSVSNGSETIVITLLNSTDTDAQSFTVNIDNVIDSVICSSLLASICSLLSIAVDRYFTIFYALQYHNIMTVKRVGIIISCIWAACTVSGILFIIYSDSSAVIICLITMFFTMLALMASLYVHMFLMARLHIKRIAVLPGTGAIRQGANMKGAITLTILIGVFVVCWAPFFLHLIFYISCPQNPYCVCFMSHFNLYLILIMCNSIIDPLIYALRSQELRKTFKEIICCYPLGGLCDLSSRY

[3] = target: T2, Corticotropin-releasing factor receptor 2/Corticotropin-releasing factor-binding protein (Homo sapiens, UniProt P24387+Q13324); assay: Dose Response confirmation of uHTS hits for small molecule antagonists of the CRF-binding protein and CRF-R2 receptor complex.; type: functional; settings: read-out: IC50_Mean
T2 sequence (Q13324 whole entry): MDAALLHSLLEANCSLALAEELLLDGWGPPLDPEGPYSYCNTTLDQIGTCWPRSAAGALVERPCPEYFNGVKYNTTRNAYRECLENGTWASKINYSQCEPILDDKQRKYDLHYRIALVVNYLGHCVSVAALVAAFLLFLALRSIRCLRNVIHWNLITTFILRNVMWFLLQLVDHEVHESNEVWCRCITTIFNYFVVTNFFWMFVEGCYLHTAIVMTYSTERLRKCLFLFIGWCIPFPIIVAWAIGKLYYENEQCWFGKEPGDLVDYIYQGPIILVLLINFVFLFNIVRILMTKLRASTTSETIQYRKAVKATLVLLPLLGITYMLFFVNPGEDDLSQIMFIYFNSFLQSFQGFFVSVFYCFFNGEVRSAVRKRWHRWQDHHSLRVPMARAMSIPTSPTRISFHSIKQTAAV
T2 sequence (P24387 whole entry): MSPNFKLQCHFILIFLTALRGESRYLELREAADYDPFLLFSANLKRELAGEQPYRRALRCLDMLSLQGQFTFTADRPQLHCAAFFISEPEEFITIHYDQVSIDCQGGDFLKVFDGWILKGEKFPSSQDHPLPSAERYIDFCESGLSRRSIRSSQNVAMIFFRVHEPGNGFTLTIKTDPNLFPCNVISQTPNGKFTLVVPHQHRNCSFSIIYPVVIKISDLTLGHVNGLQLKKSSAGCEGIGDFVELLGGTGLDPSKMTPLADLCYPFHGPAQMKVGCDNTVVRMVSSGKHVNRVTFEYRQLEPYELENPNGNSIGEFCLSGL

[4] = target: T2, Corticotropin-releasing factor receptor 2/Corticotropin-releasing factor-binding protein; assay: activators of CRF receptor 2 with binding protein – uHTS hits, confirmation (AID 602473); type: functional; settings: read-out: EC50_Mean
[5] = nonselective inhibitors of cellular cAMP signaling, dose response, counter-screen for MC4R biased antagonist project, cell-based, TR-FRET cAMP detection (AID 602305); type: functional;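 further: U2OS cells stimulated with forskolin near its EC80 as the cAMP inducer; potency is for inhibition of forskolin-stimulated cAMP signaling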
[6] = CRF-BP/CRF-R2 complex antagonists, dose response, cell-based, uHTS hits, 384-well (AID 651639); type: functional, Homo sapiens; settings: read-out: IC50_Mean
Insulin-degrading enzyme [7] = target: T3, Insulin-degrading enzyme (Homo sapiens, UniProt P14735); assay: activators of recombinant IDE enzyme, dose response, counter-screen for IDE activator project, biochemical, fluorescence polarization (AID 588681)
T3 sequence (P14735 whole entry): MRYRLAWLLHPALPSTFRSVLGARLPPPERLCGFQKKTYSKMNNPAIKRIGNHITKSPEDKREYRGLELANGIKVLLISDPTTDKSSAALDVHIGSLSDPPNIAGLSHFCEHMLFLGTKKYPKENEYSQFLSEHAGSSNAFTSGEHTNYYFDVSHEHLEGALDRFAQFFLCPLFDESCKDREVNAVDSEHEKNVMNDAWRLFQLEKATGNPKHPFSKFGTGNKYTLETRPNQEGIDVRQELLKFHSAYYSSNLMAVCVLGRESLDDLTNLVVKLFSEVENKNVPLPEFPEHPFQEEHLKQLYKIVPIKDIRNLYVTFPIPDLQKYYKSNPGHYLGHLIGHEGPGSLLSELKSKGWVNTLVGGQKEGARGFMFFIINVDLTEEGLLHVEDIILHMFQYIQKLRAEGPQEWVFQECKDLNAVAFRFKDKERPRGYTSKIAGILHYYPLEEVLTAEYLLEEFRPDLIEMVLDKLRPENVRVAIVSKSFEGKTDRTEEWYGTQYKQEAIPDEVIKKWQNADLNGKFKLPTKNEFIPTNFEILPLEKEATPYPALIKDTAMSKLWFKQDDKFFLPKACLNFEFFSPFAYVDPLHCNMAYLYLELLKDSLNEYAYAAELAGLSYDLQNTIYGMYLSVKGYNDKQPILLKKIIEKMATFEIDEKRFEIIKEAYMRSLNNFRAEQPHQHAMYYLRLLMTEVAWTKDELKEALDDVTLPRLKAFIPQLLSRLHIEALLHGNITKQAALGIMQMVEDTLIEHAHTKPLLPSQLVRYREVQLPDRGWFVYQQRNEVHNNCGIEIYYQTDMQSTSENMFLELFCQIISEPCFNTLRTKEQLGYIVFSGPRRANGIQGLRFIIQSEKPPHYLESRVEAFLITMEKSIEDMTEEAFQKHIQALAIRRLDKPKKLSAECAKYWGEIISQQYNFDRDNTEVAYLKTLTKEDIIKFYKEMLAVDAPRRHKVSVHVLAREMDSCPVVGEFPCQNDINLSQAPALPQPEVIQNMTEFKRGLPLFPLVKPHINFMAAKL

Insulin-degrading enzyme [8] = target: T3, Insulin-degrading enzyme; assay: activators of endogenous IDE in HEK cells, dose response, cell-based, fluorescence polarization (AID 588439); type: functional
HEK293 [9] = assay: HEK cell cytotoxicity by LDH release, dose response, cytotoxicity control for IDE activator project, fluorescence, HEK cells (AID 588440); type: functional, cell-based; settings: Homo sapiens;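 further: cytotoxicity by LDH release measuring loss of membrane integrity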
HEK293 [10] = assay: optical interference in Abeta FP readout, dose response, artefact control for IDE activator project, biochemical, fluorescence polarization (AID 588442); type: functional, cell-based; settings: Homo sapiens
[11] = target: Ras and Rab interactor 1/Tyrosine-protein kinase ABL1 (Homo sapiens, UniProt P00519+Q13671); type: functional;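 further: biochemical TR-FRET dose-response test measuring inhibition of binding between Rin1 and Abl proteins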
Sequence of Ras and Rab interactor 1/Tyrosine-protein kinase ABL1 (P00519 whole entry, the tested form may be a part): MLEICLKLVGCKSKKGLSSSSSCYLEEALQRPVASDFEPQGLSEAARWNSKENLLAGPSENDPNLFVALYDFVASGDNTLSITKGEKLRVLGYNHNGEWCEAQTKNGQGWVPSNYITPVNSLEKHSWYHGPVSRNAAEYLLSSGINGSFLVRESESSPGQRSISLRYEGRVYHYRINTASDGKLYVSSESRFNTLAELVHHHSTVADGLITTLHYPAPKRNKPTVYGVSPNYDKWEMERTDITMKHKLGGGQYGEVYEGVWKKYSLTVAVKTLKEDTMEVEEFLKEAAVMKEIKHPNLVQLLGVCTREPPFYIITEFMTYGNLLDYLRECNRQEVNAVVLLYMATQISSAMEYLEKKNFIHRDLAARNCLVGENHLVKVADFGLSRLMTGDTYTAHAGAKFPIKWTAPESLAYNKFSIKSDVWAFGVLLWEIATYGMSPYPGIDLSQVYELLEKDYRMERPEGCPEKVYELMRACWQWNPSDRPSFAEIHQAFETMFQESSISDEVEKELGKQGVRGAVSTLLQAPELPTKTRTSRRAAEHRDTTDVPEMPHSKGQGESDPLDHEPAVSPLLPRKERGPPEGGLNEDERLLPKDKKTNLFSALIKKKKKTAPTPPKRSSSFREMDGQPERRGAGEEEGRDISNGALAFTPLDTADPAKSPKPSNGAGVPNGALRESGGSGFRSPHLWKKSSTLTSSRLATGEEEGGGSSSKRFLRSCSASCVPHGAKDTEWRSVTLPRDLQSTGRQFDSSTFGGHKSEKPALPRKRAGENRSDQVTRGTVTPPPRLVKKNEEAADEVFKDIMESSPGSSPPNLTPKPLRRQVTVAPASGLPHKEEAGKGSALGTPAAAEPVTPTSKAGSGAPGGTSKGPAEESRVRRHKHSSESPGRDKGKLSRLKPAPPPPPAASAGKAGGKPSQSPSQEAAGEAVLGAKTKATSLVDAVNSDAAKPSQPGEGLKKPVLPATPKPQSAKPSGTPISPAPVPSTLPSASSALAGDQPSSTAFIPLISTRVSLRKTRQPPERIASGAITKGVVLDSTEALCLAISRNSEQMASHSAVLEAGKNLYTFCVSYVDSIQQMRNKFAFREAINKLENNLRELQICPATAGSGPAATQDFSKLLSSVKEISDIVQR
Sequence of Ras and Rab interactor 1/Tyrosine-protein kinase ABL1 (Q13671 whole entry, the tested form may be a part): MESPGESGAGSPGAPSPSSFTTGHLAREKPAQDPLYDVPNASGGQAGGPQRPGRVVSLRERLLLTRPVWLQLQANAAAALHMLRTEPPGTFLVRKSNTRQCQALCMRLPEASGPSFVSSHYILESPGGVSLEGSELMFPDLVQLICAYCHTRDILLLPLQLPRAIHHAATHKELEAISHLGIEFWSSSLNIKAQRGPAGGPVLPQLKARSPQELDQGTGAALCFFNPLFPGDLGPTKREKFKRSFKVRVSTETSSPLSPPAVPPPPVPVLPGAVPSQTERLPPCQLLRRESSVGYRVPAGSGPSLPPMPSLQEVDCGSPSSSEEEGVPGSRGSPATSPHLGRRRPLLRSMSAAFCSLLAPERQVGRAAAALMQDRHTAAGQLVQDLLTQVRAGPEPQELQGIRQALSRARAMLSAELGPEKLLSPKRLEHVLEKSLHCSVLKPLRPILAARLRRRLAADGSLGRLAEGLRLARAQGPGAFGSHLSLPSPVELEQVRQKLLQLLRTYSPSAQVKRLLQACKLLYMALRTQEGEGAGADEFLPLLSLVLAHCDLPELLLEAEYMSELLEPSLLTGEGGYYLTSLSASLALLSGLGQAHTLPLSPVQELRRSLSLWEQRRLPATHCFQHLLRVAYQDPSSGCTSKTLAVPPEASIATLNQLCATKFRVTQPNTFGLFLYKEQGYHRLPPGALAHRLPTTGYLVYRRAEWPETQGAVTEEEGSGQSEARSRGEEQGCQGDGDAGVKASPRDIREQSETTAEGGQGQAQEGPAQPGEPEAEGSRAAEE

[12] = target: Hepatocyte nuclear factor 4-alpha (Homo sapiens, UniProt P41235); type: functional, cell-based;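 further: biochemical luminescence-based dose-response counterscreen measuring inhibition of HNF4 dimerization, run alongside a screen for blockers of ABHD5–perilipin-5 interaction; split luciferase complementation of HNF4 fusion proteins in cell lysate measuring dimerization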
Sequence of Hepatocyte nuclear factor 4-alpha (P41235 whole entry, the tested form may be a part): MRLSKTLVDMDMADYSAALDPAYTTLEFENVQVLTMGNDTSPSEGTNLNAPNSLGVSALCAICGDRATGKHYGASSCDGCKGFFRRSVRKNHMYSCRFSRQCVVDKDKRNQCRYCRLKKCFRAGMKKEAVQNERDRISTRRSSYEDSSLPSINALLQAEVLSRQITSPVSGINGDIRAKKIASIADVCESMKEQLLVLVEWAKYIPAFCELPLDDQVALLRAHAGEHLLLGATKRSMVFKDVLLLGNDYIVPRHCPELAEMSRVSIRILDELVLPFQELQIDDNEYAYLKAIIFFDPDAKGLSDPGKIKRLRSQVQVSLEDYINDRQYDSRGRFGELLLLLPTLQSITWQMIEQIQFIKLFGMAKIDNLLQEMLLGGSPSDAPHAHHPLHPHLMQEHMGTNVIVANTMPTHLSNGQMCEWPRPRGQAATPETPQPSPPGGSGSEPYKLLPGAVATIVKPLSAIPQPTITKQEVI

[13] = target: T4, Replicative DNA helicase DnaB (Mycobacterium tuberculosis, UniProt P9WMR3); assay: DnaB intein splicing inhibitors, dose response, biochemical, cell-free fluorescence (AID 449749); type: functional
T4 sequence (P9WMR3 whole entry): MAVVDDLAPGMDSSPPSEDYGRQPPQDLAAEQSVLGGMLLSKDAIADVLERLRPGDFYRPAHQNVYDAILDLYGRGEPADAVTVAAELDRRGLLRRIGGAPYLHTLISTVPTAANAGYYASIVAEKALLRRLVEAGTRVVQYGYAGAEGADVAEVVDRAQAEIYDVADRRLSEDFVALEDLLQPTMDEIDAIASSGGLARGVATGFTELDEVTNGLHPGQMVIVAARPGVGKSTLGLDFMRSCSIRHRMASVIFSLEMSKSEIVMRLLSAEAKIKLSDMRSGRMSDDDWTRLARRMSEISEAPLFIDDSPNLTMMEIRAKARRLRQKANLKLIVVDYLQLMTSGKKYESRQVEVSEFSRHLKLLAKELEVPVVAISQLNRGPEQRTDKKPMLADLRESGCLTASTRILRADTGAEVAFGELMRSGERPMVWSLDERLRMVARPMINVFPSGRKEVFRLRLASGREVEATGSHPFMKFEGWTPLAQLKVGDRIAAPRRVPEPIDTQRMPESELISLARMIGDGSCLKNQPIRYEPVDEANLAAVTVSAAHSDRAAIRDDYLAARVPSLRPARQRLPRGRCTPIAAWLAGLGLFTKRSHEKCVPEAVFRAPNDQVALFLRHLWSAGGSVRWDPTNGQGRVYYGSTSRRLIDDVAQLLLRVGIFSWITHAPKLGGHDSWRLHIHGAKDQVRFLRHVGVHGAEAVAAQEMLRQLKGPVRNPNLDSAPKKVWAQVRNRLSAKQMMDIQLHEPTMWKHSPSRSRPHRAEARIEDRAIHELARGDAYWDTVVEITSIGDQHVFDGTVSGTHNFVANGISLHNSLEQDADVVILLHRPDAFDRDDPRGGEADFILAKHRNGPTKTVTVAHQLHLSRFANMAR

Protein RecA = target: T5, Protein RecA (Mycobacterium tuberculosis, UniProt P9WHJ3); assay: Fluorescence Cell-Free Homogeneous Dose Retest to Identify Inhibitors of RecA-Intein Splicing Activity. [Related pubchem assays (depositor defined):AID2097, AID2223, AID489010, AID492950]; type: functional
T5 sequence (P9WHJ3 whole entry): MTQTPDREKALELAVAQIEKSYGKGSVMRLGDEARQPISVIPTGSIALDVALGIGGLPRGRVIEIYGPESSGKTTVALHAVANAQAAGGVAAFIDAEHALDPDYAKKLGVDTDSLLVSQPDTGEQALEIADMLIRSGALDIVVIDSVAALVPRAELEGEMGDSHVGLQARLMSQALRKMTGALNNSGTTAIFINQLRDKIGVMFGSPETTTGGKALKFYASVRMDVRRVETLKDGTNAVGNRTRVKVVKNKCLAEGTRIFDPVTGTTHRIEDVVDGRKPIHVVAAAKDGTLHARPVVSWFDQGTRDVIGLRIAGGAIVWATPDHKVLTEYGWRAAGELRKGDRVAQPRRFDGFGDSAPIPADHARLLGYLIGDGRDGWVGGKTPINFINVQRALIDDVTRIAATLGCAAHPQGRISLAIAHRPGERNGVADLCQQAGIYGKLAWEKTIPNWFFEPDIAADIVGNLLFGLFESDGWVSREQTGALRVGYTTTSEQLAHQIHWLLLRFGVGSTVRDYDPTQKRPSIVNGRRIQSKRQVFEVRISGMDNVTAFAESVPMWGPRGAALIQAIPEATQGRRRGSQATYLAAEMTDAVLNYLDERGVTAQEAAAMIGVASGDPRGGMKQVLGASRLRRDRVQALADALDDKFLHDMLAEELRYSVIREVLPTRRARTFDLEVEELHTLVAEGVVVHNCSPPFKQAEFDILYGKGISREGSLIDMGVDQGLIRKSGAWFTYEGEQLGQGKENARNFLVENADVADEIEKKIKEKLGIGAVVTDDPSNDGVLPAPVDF

[14] = target: T6, Small ubiquitin-related modifier 1 (Homo sapiens, UniProt P63165); assay: inhibitors of SUMO1 peptide binding, dose response, biochemical, fluorescence polarization, uHTS hits (AID 624382); type: functional; settings: read-out: IC50_Mean
T6 sequence (P63165 whole entry): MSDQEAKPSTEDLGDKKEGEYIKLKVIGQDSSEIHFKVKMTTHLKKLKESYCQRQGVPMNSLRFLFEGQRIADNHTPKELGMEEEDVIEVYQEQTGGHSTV

[15] = target: T6, Small ubiquitin-related modifier 1; assay: inhibitors of SUMO1 partner interactions, dose response, biochemical, FRET (AID 624383); type: functional; settings: read-out: IC50_Mean

Sequence of ALK tyrosine kinase receptor (Q9UM73 whole entry): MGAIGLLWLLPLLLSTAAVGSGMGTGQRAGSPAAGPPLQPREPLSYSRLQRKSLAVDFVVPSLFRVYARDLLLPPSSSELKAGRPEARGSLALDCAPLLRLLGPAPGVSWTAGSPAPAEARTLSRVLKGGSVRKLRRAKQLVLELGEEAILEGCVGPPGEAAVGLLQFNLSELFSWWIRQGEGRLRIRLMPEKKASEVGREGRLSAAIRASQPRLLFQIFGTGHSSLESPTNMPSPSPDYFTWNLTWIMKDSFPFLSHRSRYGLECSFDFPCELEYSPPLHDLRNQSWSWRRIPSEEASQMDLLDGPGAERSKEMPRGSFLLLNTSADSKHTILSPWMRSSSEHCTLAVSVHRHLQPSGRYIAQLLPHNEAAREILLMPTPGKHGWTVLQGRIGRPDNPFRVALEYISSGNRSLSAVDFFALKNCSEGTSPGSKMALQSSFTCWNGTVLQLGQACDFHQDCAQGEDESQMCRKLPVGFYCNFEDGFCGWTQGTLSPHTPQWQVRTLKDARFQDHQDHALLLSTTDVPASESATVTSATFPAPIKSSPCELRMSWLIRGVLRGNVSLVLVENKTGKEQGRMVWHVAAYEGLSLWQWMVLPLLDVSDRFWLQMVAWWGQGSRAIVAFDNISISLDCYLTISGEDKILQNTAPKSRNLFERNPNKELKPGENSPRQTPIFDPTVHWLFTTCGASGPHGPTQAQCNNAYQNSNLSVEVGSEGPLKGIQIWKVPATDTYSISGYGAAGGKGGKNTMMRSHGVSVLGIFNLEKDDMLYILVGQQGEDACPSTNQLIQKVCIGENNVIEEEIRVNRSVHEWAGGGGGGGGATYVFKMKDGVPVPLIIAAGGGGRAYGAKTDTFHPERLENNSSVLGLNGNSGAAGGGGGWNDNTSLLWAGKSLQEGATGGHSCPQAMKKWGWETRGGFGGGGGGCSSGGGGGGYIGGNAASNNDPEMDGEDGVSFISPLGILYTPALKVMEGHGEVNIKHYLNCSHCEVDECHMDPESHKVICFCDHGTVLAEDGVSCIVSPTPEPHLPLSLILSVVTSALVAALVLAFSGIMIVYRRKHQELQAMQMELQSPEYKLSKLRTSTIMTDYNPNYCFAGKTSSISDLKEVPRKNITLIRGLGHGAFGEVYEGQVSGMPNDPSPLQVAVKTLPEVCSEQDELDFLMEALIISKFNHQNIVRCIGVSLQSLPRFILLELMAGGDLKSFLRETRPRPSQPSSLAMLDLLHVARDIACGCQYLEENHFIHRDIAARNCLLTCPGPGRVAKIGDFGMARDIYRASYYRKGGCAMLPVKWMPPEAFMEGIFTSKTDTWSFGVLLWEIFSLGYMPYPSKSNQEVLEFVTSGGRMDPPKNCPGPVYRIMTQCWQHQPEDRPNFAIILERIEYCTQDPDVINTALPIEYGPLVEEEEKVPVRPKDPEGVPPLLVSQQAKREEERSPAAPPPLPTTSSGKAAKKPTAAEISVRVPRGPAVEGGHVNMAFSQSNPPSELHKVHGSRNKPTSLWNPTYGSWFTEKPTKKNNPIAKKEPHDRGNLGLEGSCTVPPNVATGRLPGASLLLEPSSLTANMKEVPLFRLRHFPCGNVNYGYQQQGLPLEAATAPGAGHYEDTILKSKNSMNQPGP

**Q.** What does the source list for `NC(=O)c1cccc2nc(-c3ccc(-n4ccc(CN5CCCCC5)c4)cc3)[nH]c12`?
**A.** Ki [1]: > 3.16 µM (inactive); Ki (Aurora kinase A): > 2 µM (inactive); Ki [2]: 2 µM (active); Ki (Aurora kinase B): 39.8 nM (active)

**Q.** Which results are given for `O=C(O)c1cnn(-c2nc(-c3ccc(Cl)c(Cl)c3)cs2)c1C(F)(F)F`?
**A.** IC50 (Melanocortin receptor 4): 5 µM (active); IC50 [3]: 13.2 µM (active); EC50 [4]: 43.4 µM (active); IC50 [5]: > 64.6 µM (inactive); IC50 [6]: 11 µM (active)

**Q.** Which results are given for `NC(=O)c1ccc(SCC(=O)OCC(=O)NCC2CCCCC2)c([N+](=O)[O-])c1`?
**A.** IC50 (Melanocortin receptor 4): > 64.5 µM (inactive); IC50 [5]: > 64.5 µM (inactive)

**Q.** Which results are given for `CC1(c2nnc(Cc3ccccc3)o2)CC(c2c(Cl)cccc2Cl)=NO1` (stereo not given)?
**A.** EC50 (Insulin-degrading enzyme [7]): > 54.7 µM (inactive); EC50 (Insulin-degrading enzyme [8]): > 54.7 µM (inactive); IC50 (HEK293 [9]): > 89.2 µM (inactive); EC50 (HEK293 [10]): > 55.9 µM (inactive)

**Q.** For `CN(C)C(=O)C=Cc1ccc(-c2ccc(NC(=O)Nc3cccc(C(F)(F)F)c3)cc2)c2c(N)n[nH]c12`, which Ki (Aurora kinase A) is on record?
**A.** 0.0398 µM (active)

**Q.** What about the Ki (Aurora kinase B) of the same compound?
**A.** 3.16 nM (active)

**Q.** For `COC(=O)c1ccc(COC(=O)c2ccc(-n3cnnn3)cc2)o1`, which IC50 [11] is on record?
**A.** 21.1 µM (inactive)

**Q.** For `CC(OC(=O)CC1CC2CCC1C2)C(=O)Nc1cccc(S(=O)(=O)N2CCOCC2)c1` (stereo not given), which EC50 (Insulin-degrading enzyme [7]) is on record?
**A.** > 54.7 µM (inactive)

**Q.** And the EC50 (Insulin-degrading enzyme [8])?
**A.** > 54.7 µM (inactive)

**Q.** And the IC50 (HEK293 [9])?
**A.** > 89.2 µM (inactive)

**Q.** And the EC50 (HEK293 [10])?
**A.** > 54.7 µM (inactive)

**Q.** For `COc1cc(C(C)=O)ccc1OCc1cn(CC(=O)c2ccc(O)cc2)nn1`, which IC50 [12] is on record?
**A.** 5.85 µM (active)

**Q.** What does the source list for `COc1ccc(OC)c(NC(=O)Cc2ccc(NC3=NC4CS(=O)(=O)CC4S3)cc2)c1` (stereo not given)?
**A.** AC50 [13]: > 380 µM (inactive); EC50 (Protein RecA): > 380 µM (inactive); IC50 [11]: 14.1 µM (inactive)

**Q.** For `O=C1c2ccccc2C(=O)N1SC1CCCCC1`, which IC50 (Melanocortin receptor 4) is on record?
**A.** 62 µM (inactive)

**Q.** And the IC50 [5]?
**A.** 63.7 µM (inactive)

**Q.** Which results are given for `CCCCCC(=O)Nc1nc(C)c(-c2csc(Nc3cc(Cl)ccc3C)n2)s1`?
**A.** IC50 [14]: > 66.6 µM (inactive); IC50 [15]: 10.7 µM (active)
